Common to all, as to assay type: cell-based
Test [1] relates to DENV2 replicon. Nature of the test: DENV-2 Huh-7 Rep EC50 (replicon luminescence). The following applies: Dengue virus, DENV2, Huh-7, 48 h, read-out: DENV-2 Huh-7 Rep EC50. The essentials:
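EC50 derived from luminescence dose-response, normalised to DMSO-only 0% inhibition wells, after 1.5 h with EnduRen substrate. Compounds were first exposed for 48 h at 37° C to DENV2 replicon Huh-7 cells (5,000/well).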
On the technique in general: Replicon systems follow genome replication, usually without infectious particles.

In test [2] the test system is RSV strain A2. Description: RSV HEp-2 EC50 (infectious cytopathic cell protection assay). The settings on record: human respiratory syncytial virus, HEp-2 cells, RSV A2, 4 days, read-out: RSV HEp-2 EC50. The essentials:
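Percent inhibition of RSV-induced cytopathic effect came from remaining cell viability (CellTiter-Glo luminescence) after 4 days at 37° C. Compounds in 3-fold serial dilutions were exposed to an infectious mix of titered A2 virus and HEp-2 cells at 50,000/ml, with 0% and 100% inhibition control standards.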

Test [3] has as its system HRV16. Description: HRV16 HELA EC50 (cytopathic effect in H1-HeLa cells). A digest of the protocol:
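Read-out is luminescent cell viability (CellTiter-Glo) after 96 h of infection at 33 °C, scaled between uninfected and infected-untreated wells. Before infection with titrated virus, compounds went onto H1-HeLa cells as triplicate 3-fold dilution series.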
For orientation: Cytopathic effects are the visible damage that an infection or toxin causes in cultured cells.

Test [4] deals with RSV A2. Nature of the test: RSV NHBE EC50 (RSV A2 antiviral assay in normal human bronchial epithelial cells). The following applies: human respiratory syncytial virus, 96 h, NHBE cells, RSV A2, 4 days, read-out: RSV NHBE EC50.
[5] abbreviates: 96 h, H1-HeLa cells, 33° C., read-out: HRV16 HELA EC50.
Setting [6] is: H1-HeLa cells, 96 h, 33° C.; read-out: HRV16 HELA EC50.

Drawing on patent US20230295201A1 (Gilead Sciences, Inc., priority 2020, published 2023), this text covers EC50 for 14 compounds.

pEC50: −log10 of the molar value. Where two headings read alike, the source gives them in different places.

In the case of `CCOC(=O)[C@H](Cc1ccccc1)NP(=O)(OC[C@@]1(C#N)O[C@@H](c2ccc3c(N)ncnn23)[C@H](O)[C@@H]1O)Oc1ccccc1` (stereo partly drawn) [Example 3, (2S)-ethyl 2-(((((2R,3S,4R,5S)-5-(4-aminopyrrolo[2,1-f][1,2,4]triazin-7-yl)-2-cyano-3,4-dihydroxytetrahydrofuran-2-yl)methoxy)(phenoxy)phosphoryl)amino)-3-phenylpropanoate], the negative-log EC50 (pEC50) in test [1] (Huh-7 replicon cells, 48 hours) is less than 4.00; in test [2] (HEp-2, 96 h) it was 5.39; in test [3] (setting [5]) it was 5.05; in test [4] (NHBE), 5.77.

`C[C@H](NP(=O)(N[C@@H](C)C(=O)OC1CCCCC1)OC[C@@]1(C#N)O[C@@H](c2ccc3c(N)ncnn23)[C@H](O)[C@@H]1O)C(=O)OC1CCCCC1` [Example 14]: the pEC50 in test [1] is less than 4.00; in test [2] (96 h), 5.44; in test [3] (setting [6]), 4.90; in test [4], 5.90.

On to `C[C@H](NP(=O)(OC[C@@]1(C#N)O[C@@H](c2ccc3c(N)ncnn23)[C@H](O)[C@@H]1O)Oc1ccccc1)C(=O)O[C@H]1CCN(C)C1` (stereo partly drawn) [Example 15, (S)-1-methylpyrrolidin-3-yl ((((2R,3S,4R,5S)-5-(4-aminopyrrolo[2,1-f][1,2,4]triazin-7-yl)-2-cyano-3,4-dihydroxytetrahydrofuran-2-yl)methoxy)(phenoxy)phosphoryl)-L-alaninate], for which the pEC50 in test [1] (Huh-7 replicon cells, 48 hours) was less than 4.30; in test [2] (HEp-2, 96 h), 5.36; in test [3] (setting [5]) it was 4.94; in test [4] (NHBE) it was 5.49.

Consider `C[C@H](NP(=O)(OC[C@@]1(C#N)O[C@@H](c2ccc3c(N)ncnn23)[C@H](O)[C@@H]1O)Oc1ccccc1)C(=O)O[C@H]1CC[C@H](C(F)(F)F)CC1` (stereo partly drawn) [Example 16, trans-4-(trifluoromethyl)cyclohexyl ((((2R,3S,4R,5S)-5-(4-aminopyrrolo[2,1-f][1,2,4]triazin-7-yl)-2-cyano-3,4-dihydroxytetrahydrofuran-2-yl)methoxy)(phenoxy)phosphoryl)-L-alaninate], for which the pEC50 is 4.15 in test [1] (Huh-7 replicon cells, 48 hours); 5.89 in test [2] (HEp-2, 96 h); 5.88 in test [3] (setting [5]); 6.98 in test [4] (NHBE).

On to `C[C@H](NP(=O)(OC[C@@]1(C#N)O[C@@H](c2ccc3c(N)ncnn23)[C@H](O)[C@@H]1O)Oc1ccccc1)C(=O)OCC1CCOCC1` (stereo partly drawn) [Example 20, (tetrahydro-2H-pyran-4-yl)methyl ((((2R,3S,4R,5S)-5-(4-aminopyrrolo[2,1-f][1,2,4]triazin-7-yl)-2-cyano-3,4-dihydroxytetrahydrofuran-2-yl)methoxy)(phenoxy)phosphoryl)-L-alaninate], for which the pEC50 in test [1] (Huh-7 replicon cells, 48 hours) is less than 4.30; in test [2] (HEp-2, 96 h), 6.06; in test [3] (setting [5]), 5.31; in test [4] (NHBE), 5.65.

For the compound `C[C@H](NP(=O)(OC[C@@]1(C#N)O[C@@H](c2ccc3c(N)ncnn23)[C@H](O)[C@@H]1O)Oc1ccccc1)C(=O)O[C@H]1CC[C@H](C(C)(C)C)CC1` (stereo partly drawn) [Example 21, trans-4-(tert-butyl)cyclohexyl ((((2R,3S,4R,5S)-5-(4-aminopyrrolo[2,1-f][1,2,4]triazin-7-yl)-2-cyano-3,4-dihydroxytetrahydrofuran-2-yl)methoxy)(phenoxy)phosphoryl)-L-alaninate], the negative logarithm of the EC50 (pEC50) in test [1] (Huh-7 replicon cells, 48 hours) was 4.96; in test [2] (HEp-2, 96 h), 7.10; in test [3] (setting [5]), 6.64; in test [4] (NHBE), 7.57.

In the case of `C[C@H](NP(=O)(OC[C@@]1(C#N)O[C@@H](c2ccc3c(N)ncnn23)[C@H](O)[C@@H]1O)Oc1ccccc1)C(=O)OCC1CCN(CC(F)(F)F)CC1` (stereo partly drawn) [Example 31, (1-(2,2,2-trifluoroethyl)piperidin-4-yl)methyl ((((2R,3S,4R,5S)-5-(4-aminopyrrolo[2,1-f][1,2,4]triazin-7-yl)-2-cyano3,4-dihydroxytetrahydrofuran-2-yl)methoxy)(phenoxy)phosphoryl)alaninate], the pEC50 in test [1] (Huh-7 replicon cells, 48 hours) was 4.02; in test [2] (HEp-2, 96 h), 6.48; in test [3] (setting [5]), 5.60; in test [4] (NHBE), 6.59.

For the compound `CCN1CCC(OC(=O)[C@H](C)NP(=O)(OC[C@@]2(C#N)O[C@@H](c3ccc4c(N)ncnn34)[C@H](O)[C@@H]2O)Oc2ccccc2)C(F)(F)C1` (stereo partly drawn) [Example 32, 1-ethyl-3,3-difluoropiperidin-4-yl ((((2R,3S,4R,5S)-5-(4-aminopyrrolo[2,1-f][1,2,4]triazin-7-yl)-2-cyano-3,4-dihydroxytetrahydrofuran-2-yl)methoxy)(phenoxy)phosphoryl)-L-alaninate], the pEC50 is less than 4.00 in test [1] (Huh-7 replicon cells, 48 hours); 5.46 in test [2] (HEp-2, 96 h); 5.00 in test [3] (setting [5]); less than 5.51 in test [4] (NHBE).

As to `C[C@H](NP(=O)(OC[C@@]1(C#N)O[C@@H](c2ccc3c(N)ncnn23)[C@H](O)[C@@H]1O)Oc1ccccc1)C(=O)O[C@H]1CC[C@H](N)CC1` (stereo partly drawn) [Example 33, (1r,4S)-4-aminocyclohexyl ((((2R,3S,4R,5S)-5-(4-aminopyrrolo[2,1-f][1,2,4]triazin-7-yl)-2-cyano-3,4-dihydroxytetrahydrofuran-2-yl)methoxy)(phenoxy)phosphoryl)-L-alaninate], the pEC50 in test [1] (Huh-7 replicon cells, 48 hours) was less than 4.30; in test [2] (HEp-2, 96 h) it was 5.72; in test [3] (setting [5]) it was 4.57; in test [4] (NHBE) it was 5.57.

As to `CC(C)OC(=O)[C@H](C)NP(=O)(N[C@@H](C)C(=O)OC(C)C)OC[C@@]1(C#N)O[C@@H](c2ccc3c(N)ncnn23)[C@H](O)[C@@H]1O` [Example 34], the pEC50 in test [1] was less than 4.30; in test [2] (96 h) it was 4.85; in test [3] (setting [6]), less than 4.30; in test [4], 5.55.

Take `CCOC(=O)[C@H](C)NP(=O)(N[C@@H](C)C(=O)OCC)OC[C@@]1(C#N)O[C@@H](c2ccc3c(N)ncnn23)[C@H](O)[C@@H]1O` [Example 35, ((2R,3S,4R,5S)-5-(4-aminopyrrolo[2,1-f][1,2,4]triazin-7-yl)-2-cyano-3,4-dihydroxytetrahydrofuran-2-yl)methyl bis-ethyl L-alaninate phosphate]: the pEC50 in test [1] was less than 4.30; in test [2] (96 h), 5.39; in test [3] (setting [6]) it was 4.53; in test [4] it was 5.88.

As to `C[C@H](NP(=O)(N[C@@H](C)C(=O)OCC1CCC1)OC[C@@]1(C#N)O[C@@H](c2ccc3c(N)ncnn23)[C@H](O)[C@@H]1O)C(=O)OCC1CCC1` [Example 36, (2R,3S,4R,5S)-5-(4-aminopyrrolo[2,1-f][1,2,4]triazin-7-yl)-2-cyano-3,4-dihydroxytetrahydrofuran-2-yl)methyl bis-cyclobutylmethyl L-alaninate phosphate], the pEC50 in test [1] was less than 4.30; in test [2] (96 h), 5.84; in test [3] (setting [6]), 4.97; in test [4], 6.51.

Turning to `COC(=O)[C@H](C)NP(=O)(N[C@@H](C)C(=O)OC)OC[C@@]1(C#N)O[C@@H](c2ccc3c(N)ncnn23)[C@H](O)[C@@H]1O` [Example 38], the pEC50 in test [1] was less than 4.30; in test [2] (96 h) it was 5.46; in test [3] (setting [6]), 4.68; in test [4] it was 5.40.

In the case of `COC(=O)[C@H](C)NP(=O)(OC[C@@]1(C#N)O[C@@H](c2ccc3c(N)ncnn23)[C@H](O)[C@@H]1O)Oc1ccccc1` (stereo partly drawn) [Example 39, methyl ((((2R,3S,4R,5S)-5-(4-aminopyrrolo[2,1-f][1,2,4]triazin-7-yl)-2-cyano-3,4-dihydroxytetrahydrofuran-2-yl)methoxy)(phenoxy)phosphoryl)-L-alaninate], the pEC50 in test [1] (Huh-7 replicon cells, 48 hours) was less than 4.30; in test [2] (HEp-2, 96 h), 6.78; in test [3] (setting [5]) it was 5.97; in test [4] (NHBE), 6.24.

The pEC50 is −log10 of the EC50, conventionally taken in molar units.
